One compound from patent publication US11185593B2, “Alkylating agent for alkylating target with driver oncogene mutation” (Chiba Prefecture, priority 2013, dated 2021) can be followed below.

SMILES strings stand for the structures. Where two headings read alike, the source gives them in different places.

Broadly, the IC50 is the point on the concentration scale where inhibition reaches its midpoint.

One test deals with LS180 cells. Put plainly: Cytotoxicity test, WST-8 (cell counting kit-8), 48 hours. The format is cell-based, human. The following applies: Homo sapiens. The protocol:
Using LS180 colon cell line, the cells were seeded in each well of a 96-well microplate, resulting in a cell density of 3000 to 5000 cells/well, and they were then cultured overnight. On the following day, KR12 recognizing a codon 12 mutation, WT recognizing wild-type KRAS, and C12-Dp having the same structure as that of KR12, to which an alkylating agent had not been added, were each added to the cultured cells in concentrations of 1 nM, 10 nM, 30 nM, 100 nM, 300 nM, and 1 μM, and were then treated for 48 hours. Thereafter, a WST-8 reagent was added to each well, using cell counting kit-8 (DOJINDO), and the obtained mixture was then reacted for 2 hours. After that, the number of cells was counted at a wavelength of 450 nm according to a colorimetric analysis method using a microplate reader. The method of counting the number of cells comprises: 1) obtaining the mean value of the medium alone, 2) subtracting the mean value of the medium from each well, 3) obtaining the mean value of DMSO, 4) dividing the medium-subtracted value by the mean value of DMSO and then multiplying by 100, 5) obtaining the mean value of each treatment group and a standard deviation, and then preparing a graph. The calculation formula of IC50 is the following: IC50=10 (LOG (A/B)×(50−C)/(D−C)+LOG (B)), wherein A: a higher concentration of two concentrations sandwiching 50%, B: a lower concentration of two concentrations sandwiching 50%, C: inhibitory percentage at B, and D: inhibitory percentage at A.
Using colon cancer and pancreatic cancer cell lines, the cells were seeded in each well of a 96-well microplate, resulting in a cell density of 3000 to 5000 cells/well, and they were then cultured overnight. On the following day, the cells of each type were treated with KR12 recognizing a codon 12 mutation in concentrations of 1 nM, 10 nM, 30 nM, 100 nM, 300 nM, and 1 μM for 48 hours. Thereafter, a WST-8 reagent was added to each well, using cell counting kit-8, and the obtained mixture was then reacted for 2 hours. After that, the number of cells was counted at a wavelength of 450 nm according to a colorimetric analysis method using a microplate reader. The method of counting the number of cells comprises: 1) obtaining the mean value of the medium alone, 2) subtracting the mean value of the medium from each well, 3) obtaining the mean value of DMSO, 4) dividing the medium-subtracted value by the mean value of DMSO and then multiplying by 100, 5) obtaining the mean value of each treatment group and a standard deviation, and then preparing a graph. […]
For orientation: Formazan colour is commonly taken as a measure of viable cells.

The test system of another test is Caco-2. The test is described as above. The class given is cell-based. The following applies: Homo sapiens, Caco-2, KRAS wild type, read-out: KR12 IC50. As for the experimental part: (§1) Using colon cancer and pancreatic cancer cell lines, the cells were seeded in each well of a 96-well microplate, resulting in a cell density of 3000 to 5000 cells/well, and they were then cultured overnight. On the following day, the cells of each type were treated with KR12 recognizing a codon 12 mutation in concentrations of 1 nM, 10 nM, 30 nM, 100 nM, 300 nM, and 1 μM for 48 hours. Thereafter, a WST-8 reagent was added to each well, using cell counting kit-8, and the obtained mixture was then reacted for 2 hours. After that, the number of cells was counted at a wavelength of 450 nm according to a colorimetric analysis method using a microplate reader. The method of counting the number of cells comprises: 1) obtaining the mean value of the medium alone, 2) subtracting the mean value of the medium from each well, 3) obtaining the mean value of DMSO, 4) dividing the medium-subtracted value by the mean value of DMSO and then multiplying by 100, 5) obtaining the mean value of each treatment group and a standard deviation, and then preparing a graph. The calculation formula of IC50 is the following: IC50=10 (LOG (A/B)×(50−C)/(D−C)+LOG (B)), wherein A: a higher concentration of two concentrations sandwiching 50%, B: a lower concentration of two concentrations sandwiching 50%, C: inhibitory percentage at B, and D: inhibitory percentage at A.
(§2) The cells used in the aforementioned experiment are human cancer cell lines SW480, SW620, SNU-C2B, LS180, SW1463, DLD-1, HT29, and Caco-2 (purchased from European Collection of Cell Cultures (ECACC)).

Another test relates to DLD-1. Described as above. The class given is cell-based. To be noted: Homo sapiens, DLD-1, KRAS G13D Hetero, read-out: KR12 IC50. The protocol:
as §1, §2

For a further test, the system named is HT-29. The description is as above. The following applies: Homo sapiens, HT-29, KRAS wild type, read-out: KR12 IC50. The class given is cell-based. The protocol:
as §1, §2

Another test deals with SNU-C2B. The test is described as above. The format is cell-based. To be noted: Homo sapiens, KRAS G12D Hetero, read-out: KR12 IC50. The protocol:
as §1, §2

A further test concerns SW1463. The test is described as above. The following applies: SW1463, KRAS G12C Homo, read-out: KR12 IC50. The class given is cell-based. The protocol: as §1, §2
The next test deals with SW480. The test is described as above. The class given is cell-based. To be noted: SW480, KRAS G12V Homo, read-out: KR12 IC50. The protocol:
as §1, §2

The test system of a further test is SW620. The description is as above. The format is cell-based. To be noted: SW-620, SW620, KRAS G12V Homo, read-out: KR12 IC50. The protocol: as §1, §2
In test [1] the test system is active-type KRAS proteins (p21-ras proteins). As to the kind of experiment: Measurement of RAS activity (RAS activation assay kit). To be noted: LS180, 50 nM, 48 hours, FIG. 12A. The class given is cell-based, human. As for the experimental part:
Cells (the number of cells: 2×10^6 cells/100 mm plate or 1×10^6 cells/100 mm plate) were cultured in a complete nutrient medium, and on the following day, the cultured cells were treated with 50 nM KR12 or KR13, followed by culture for 48 hours. Thereafter, the resulting cells were dissolved in a magnesium lysis buffer (MLB), and a RAS activity level was then measured using a RAS activation assay kit (Millipore, MA).

The next test has as its system LS180. As to the kind of experiment: Cell growth of KR12-treated LS180 cells (FIG. 12B). The class given is cell-based, human. The following applies: LS180, FIG. 12B.
In a further test the test system is HT29 (KRAS-WT). As to the kind of experiment: Suppression of tumor growth in nude mice, HT29 transplanted. The following applies: nude mice with HT29 cells; 3.4 mmol KR12 via the caudal vein; FIG. 14A. The class given is in vivo. As for the experimental part: (§3) The below-mentioned 3 types of PBS solutions containing each type of cells were subcutaneously transplanted into the femurs of nude mice (i.e., HT29 into 7 mice, LS180 into 7 mice, and SW480 into 6 mice), and thereafter, at a time point in which a tumor adhered to the living body of each mouse and the tumor volume became approximately 100 mm^3, a drug was prepared with a composition of 3.4 mmol KR12 (1.36 mM KR12 dissolved in 2.5 μL of DMSO and 197.5 μL of PBS), or of a DMSO/PBS control (2.5 μL of DMSO and 197.5 μL of PBS). The prepared drug was subjected to sonication for 10 minutes, and 200 μL of the drug was administered to each mouse via the caudal vein thereof. The body weight and the tumor size were measured once three days, and the size of the tumor was measured by the method of 0.52×L×W×D(1/6×π×L×W×D).
HT29 (KRAS-WT): (transplanted in an amount of 2×10^6 cells/100 μl PBS into the subcutis of each mouse; a wild-type KRAS codon 12 cell line having no codon 12 mutations)

The subject of a further test is LS180 (KRAS-MUThetero). Put plainly: Suppression of tumor growth in nude mice, LS180 transplanted. The class given is in vivo. The following applies: nude mice with LS180 cells; 3.4 mmol KR12 via the caudal vein; FIG. 14B. The protocol: as §3
LS180 (KRAS-MUThetero): (transplanted in an amount of 3×10^6 cells/100 μl PBS into the subcutis of each mouse; a cell line having a heterozygous KRAS gene codon 12 mutation G12D)

In the case of `CC(=O)Nc1cn(C)c(C(=O)Nc2cc(C(=O)NCCC(=O)Nc3cn(C)c(C(=O)Nc4cn(C)c(C(=O)Nc5cc(C(=O)Nc6cn(C)c(C(=O)NCCCC(=O)Nc7cc(C(=O)Nc8cn(C)c(C(=O)NCCC(=O)Nc9cc(C(=O)Nc%10cc(C(=O)Nc%11ccc%12[nH]c(C(=O)N%13CC(CCl)c%14c%13cc(O)c%13ccccc%14%13)cc%12c%11)n(C)c%10)n(C)c9)n8)n(C)c7)n6)n(C)c5)n4)n3)n(C)c2)n1` (stereo not shown) [KR12], the IC50 is 42 nM in the test with LS180 cells (LS180, KRAS G12D Hetero, Table 1, read-out: KR12 IC50); 53 nM in the test with LS180 cells (LS180 cells, WST-8, FIG. 8, read-out: IC50); 105 nM in the test with Caco-2; 153 nM in the test on DLD-1; 102 nM with HT-29; 57 nM in the test with SNU-C2B. Also, the IC50 worked out at 178 nM in the test on SW1463, 31 nM with SW480 and 17 nM in the test with SW620. Further, the “activity of the detected KRAS protein (RAS activity level)” value in test [1] is “decreased”. In the test on LS180, the cell growth result is listed as “suppressed”. For the same compound, the tumor growth entry was “could not be suppressed” in the test with HT29 (KRAS-WT) and “significantly suppressed” in the test on LS180 (KRAS-MUThetero).
